According to ChEMBL document CHEMBL1135191, “Novel cyclourethane-derived HIV protease inhibitors: a ring-closing olefin metathesis based strategy” (Bioorg Med Chem Lett, 2002):

tested on: MT4; assay: Inhibitory activity against HIV-1 virus in MT-4 human T-lymphoid cells; assay type: functional; details: read-out: ID50 (the source's name)

SMILES	IC50 [nM]
CC1CCCCCCCCCCOC(=O)N(CC(O)C(Cc2ccccc2)NC(=O)O[C@H]2CO[C@H]3OCC[C@H]32)C1 (some centres not stated)	2500

target: Human immunodeficiency virus type 1 protease (Human immunodeficiency virus 1, UniProt Q72874); assay: Compound was tested for its inhibitory potency against human immunodeficiency virus -1 (HIV-1 protease); details: not given

SMILES	Ki [nM]
O=C(NC(Cc1ccccc1)C(O)CN1CCCCCCCCCCC(c2ccccc2)OC1=O)O[C@H]1CO[C@H]2OCC[C@H]21 (some centres not stated)	189
O=C(NC(Cc1ccccc1)C(O)CN1CCCCCCCCCCCC(c2ccccc2)OC1=O)O[C@H]1CO[C@H]2OCC[C@H]21 (some centres not stated)	357
CC1C/C=C/CCCCCCCCOC(=O)N(CC(O)C(Cc2ccccc2)NC(=O)O[C@H]2CO[C@H]3OCC[C@H]32)C1 (some centres not stated)	11
O=C(NC(Cc1ccccc1)C(O)CN1CCCCCCCCCCCOC1=O)O[C@H]1CO[C@H]2OCC[C@H]21 (some centres not stated)	80
CC(C)(C)NC(=O)[C@@H]1C[C@@H]2CCCC[C@@H]2CN1CC(O)C(Cc1ccccc1)NC(=O)O[C@H]1CO[C@H]2OCC[C@H]21 (some centres not stated)	2
C=CCCCCCCCCOC(=O)N(CC=C)CC(O)C(Cc1ccccc1)NC(=O)O[C@H]1CO[C@H]2OCC[C@H]21 (some centres not stated)	> 1000
CC1CCCCCCCCCCCOC(=O)N1CC(O)C(Cc1ccccc1)NC(=O)O[C@H]1CO[C@H]2OCC[C@H]21 (some centres not stated)	30
O=C(NC(Cc1ccccc1)C(O)CN1C/C=C\CCCCCCCC(c2ccccc2)OC1=O)O[C@H]1CO[C@H]2OCC[C@H]21 (some centres not stated)	229
CC1CCCCCCCCCCOC(=O)N(CC(O)C(Cc2ccccc2)NC(=O)O[C@H]2CO[C@H]3OCC[C@H]32)C1 (some centres not stated)	6.1
C=CCCCCCCCCN(CC(O)C(Cc1ccccc1)NC(=O)O[C@H]1CO[C@H]2OCC[C@H]21)C(=O)OC(CC=C)c1ccccc1 (some centres not stated)	> 1000
C=CCCCCCCC(OC(=O)N(CCCCC=C)CC(O)C(Cc1ccccc1)NC(=O)O[C@H]1CO[C@H]2OCC[C@H]21)c1ccccc1 (some centres not stated)	444
O=C(NC(Cc1ccccc1)C(O)CN1CCCC/C=C/CCCCCCC(c2ccccc2)OC1=O)O[C@H]1CO[C@H]2OCC[C@H]21 (some centres not stated)	162
O=C(NC(Cc1ccccc1)C(O)CN1CCCCCCCCC/C=C/CC(c2ccccc2)OC1=O)O[C@H]1CO[C@H]2OCC[C@H]21 (some centres not stated)	167
C=CCCCCCCCC(OC(=O)N(CC=C)CC(O)C(Cc1ccccc1)NC(=O)O[C@H]1CO[C@H]2OCC[C@H]21)c1ccccc1 (some centres not stated)	> 1000
O=C(NC(Cc1ccccc1)C(O)CN1CCCCCCCCC/C=C/CCOC1=O)O[C@H]1CO[C@H]2OCC[C@H]21 (some centres not stated)	88
O=C(NC(Cc1ccccc1)C(O)CN1CCCCCCCCCCCCOC1=O)O[C@H]1CO[C@H]2OCC[C@H]21 (some centres not stated)	14
C=CCCCCCCCCOC(=O)N(CC(O)C(Cc1ccccc1)NC(=O)O[C@H]1CO[C@H]2OCC[C@H]21)C(C)CC=C (some centres not stated)	> 1000
COc1ccc(S(=O)(=O)N(CC(C)C)CC(O)C(Cc2ccccc2)NC(=O)O[C@H]2CO[C@H]3OCC[C@H]32)cc1 (some centres not stated)	0.015
O=C(NC(Cc1ccccc1)C(O)CN1CCCCCCCCCCCCC(c2ccccc2)OC1=O)O[C@H]1CO[C@H]2OCC[C@H]21 (some centres not stated)	268
C=CCCCCCCCCN(CC(O)C(Cc1ccccc1)NC(=O)O[C@H]1CO[C@H]2OCC[C@H]21)C(=O)OCCC=C (some centres not stated)	> 1000
O=C(NC(Cc1ccccc1)C(O)CN1C/C=C\CCCCCCCCOC1=O)O[C@H]1CO[C@H]2OCC[C@H]21 (some centres not stated)	125
CC1C/C=C\CCCCCCCCCOC(=O)N1CC(O)C(Cc1ccccc1)NC(=O)O[C@H]1CO[C@H]2OCC[C@H]21 (some centres not stated)	53
C=CCCCCCCCOC(=O)N(CC(C)CC=C)CC(O)C(Cc1ccccc1)NC(=O)O[C@H]1CO[C@H]2OCC[C@H]21 (some centres not stated)	> 1000

target: Human immunodeficiency virus type 1 protease (Human immunodeficiency virus 1) (UniProt Q72874); details: not given

SMILES	ID50 [nM]
CC(C)(C)NC(=O)[C@@H]1C[C@@H]2CCCC[C@@H]2CN1C[C@@H](O)[C@H](Cc1ccccc1)NC(=O)[C@H](CC(N)=O)NC(=O)c1ccc2ccccc2n1	18

tested on: Human immunodeficiency virus 1; assay: Compound was tested for its antiviral potency against human immunodeficiency virus type 1; assay type: functional; details: read-out: ID50 (the source's name)

SMILES	IC50 [nM]
CC(C)(C)NC(=O)[C@@H]1C[C@@H]2CCCC[C@@H]2CN1CC(O)C(Cc1ccccc1)NC(=O)O[C@H]1CO[C@H]2OCC[C@H]21 (some centres not stated)	50
COc1ccc(S(=O)(=O)N(CC(C)C)CC(O)C(Cc2ccccc2)NC(=O)O[C@H]2CO[C@H]3OCC[C@H]32)cc1 (some centres not stated)	1.4
